Experiments:
[1] = Selectivity index, ratio of CC50 for cytotoxicity against human HeLa CCL2 cells to EC50 for antiviral activity against CHIKV 122508 infected in human HeLa CCL2 cells; type: toxicity, cell-based; conditions: read-out: Ratio CC50/EC50
Chikungunya virus [2] = assay: Antiviral activity against CHIKV 122508 infected in […] BHK-21 cells assessed as reduction in viral titer at MOI of 1 measured after 24 hpi by viral plaque assay; type: functional, organism-based; conditions: Chikungunya virus, 122508, BHK-21
[3] = Cytotoxicity against human HeLa CCL2 cells assessed as reduction in cell viability measured after 24 hrs by Alamar blue assay; type: functional
Chikungunya virus [4] = assay: Antiviral activity against CHIKV 122508 infected in human HeLa CCL2 cells assessed as inhibition of viral replication at MOI of 1 at 80 uM incubated for 24 hpi by viral plaque assay; type: functional; set-up: unit not given here; conditions: time 24 hrs
Chikungunya virus [5] = assay: Antiviral activity against CHIKV 122508 infected in human HeLa CCL2 cells assessed as inhibition of viral replication at MOI of 1 at 10 uM incubated for 24 hpi by viral plaque assay; type: functional; set-up: unit not given here; conditions: time 24 hrs
Chikungunya virus [6] = assay: Antiviral activity against CHIKV 122508 infected in human HeLa CCL2 cells assessed as inhibition of viral replication at MOI of 1 at 100 uM incubated for 24 hpi by viral plaque assay; type: functional; set-up: unit not given here; conditions: time 24 hrs

SMILES	selectivity ratio [1]	EC50 (Chikungunya virus [2]) [µM]	CC50 [3] [µM]	Activity (Chikungunya virus [4])	Activity (Chikungunya virus [5])	Activity (Chikungunya virus [6])
C=C1CC[C@H]2C(C)(C)CCC[C@]2(C)[C@H]1C/C=C1\C(=O)Nc2cc(C(F)(F)F)ccc21	17	3.07	52.8	–	–	–
C=C1CC[C@H]2C(C)(C)CCC[C@]2(C)[C@H]1C/C=C1\C(=O)Nc2c(Cl)cccc21	5.7	10.5	59.7	–	–	–
C=C1CC[C@H]2C(C)(C)CCC[C@]2(C)[C@H]1C/C=C1\C(=O)Nc2cc(Cl)ccc21	–	–	15.6	–	–	–
C=C1CC[C@H]2C(C)(C)CCC[C@]2(C)[C@H]1C/C=C1/C(=O)Nc2c(OC)cccc21	602	0.15	90.2	2.6	–	–
C=C1CC[C@H]2C(C)(C)CCC[C@]2(C)[C@H]1C/C=C1/C(=O)Nc2ccc(Br)cc21	10	7.4	77.2	–	–	–
CC1=CC[C@H]2C(C)(C)CCC[C@]2(C)[C@H]1C/C=C1\C(=O)Nc2ccccc21	3	5.69	17	–	–	–
C=C1CC[C@@H]2[C@](C)(CO)[C@H](O)CC[C@@]2(C)[C@@H]1C/C=C1/C(=O)N(C(C)=O)c2ccccc21	–	–	> 100	–	–	–
C=C1CC[C@H]2C(C)(C)CCC[C@]2(C)[C@H]1C/C=C1/C(=O)Nc2c(Br)cccc21	> 79	1.27	> 100	–	–	–
C=C1CC[C@H]2C(C)(C)CCC[C@]2(C)[C@H]1C/C=C1\C(=O)Nc2ccc(C(F)(F)F)cc21	> 6.1	2.63	> 16.2	–	–	–
C=C1CC[C@H]2C(C)(C)CCC[C@]2(C)[C@H]1C/C=C1/C(=O)Nc2ccc(C(F)(F)F)cc21	–	–	6.66	–	–	–
C=C1CC[C@H]2C(C)(C)CCC[C@]2(C)[C@H]1C/C=C1\C(=O)Nc2c(F)cccc21	336	0.08	26.9	–	2	–
C=C1CC[C@H]2C(C)(C)CCC[C@]2(C)[C@H]1C/C=C1\C(=O)Nc2ccc(Br)cc21	11	1.8	20.6	–	–	–
C=C1CC[C@H]2C(C)(C)CCC[C@]2(C)[C@H]1C/C=C1/C(=O)Nc2cc(F)ccc21	20	0.46	9	–	–	–
C=C1CC[C@H]2C(C)(C)CCC[C@]2(C)[C@H]1C/C=C1\C(=O)Nc2cc(Br)ccc21	2.6	7.5	19.6	–	–	–
C=C1CC[C@H]2C(C)(C)CCC[C@]2(C)[C@H]1C/C=C1\C(=O)Nc2c(OC)cccc21	780	0.03	23.4	–	1.5	–
C=C1CC[C@H]2C(C)(C)CCC[C@]2(C)[C@H]1C/C=C1/C(=O)NC(=O)c2ccccc21	15	3.46	50.5	–	–	–
C=C1CC[C@@H]2[C@](C)(COC(C)=O)[C@H](OC(C)=O)CC[C@@]2(C)[C@@H]1C/C=C1\C(=O)Nc2ccccc21	> 12	8.3	> 100	–	–	–
C=C1CC[C@H]2C(C)(C)CCC[C@]2(C)[C@H]1C/C=C1/C(=O)Nc2c(C)cccc21	230	0.62	142	1.3	–	–
C=C1CC[C@@H]2[C@](C)(CO)[C@H](O)CC[C@@]2(C)[C@@H]1CCC1C(=O)Nc2ccccc21 (stereo not given in full)	–	–	> 100	–	–	–
C=C1CC[C@H]2C(C)(C)CCC[C@]2(C)[C@H]1C/C=C1/C(=O)Nc2cc(Br)ccc21	–	–	8.3	–	–	–
C=C1CC[C@H]2C(C)(C)CCC[C@]2(C)[C@H]1C/C=C1/C(=O)Nc2ccc(C)cc21	758	0.02	15.2	–	3.7	–
C=C1CC[C@H]2C(C)(C)CCC[C@]2(C)[C@H]1C/C=C1\C(=O)Nc2cc(F)ccc21	67	0.21	14.2	–	–	–
C=C1CC[C@H]2C(C)(C)CCC[C@]2(C)[C@H]1C/C=C1\C(=O)Nc2c(C)cccc21	> 667	0.15	> 100	–	–	2.8
C=C1CC[C@H]2C(C)(C)CCC[C@]2(C)[C@H]1C/C=C1\C(=O)Nc2cccc(Br)c21	62	0.44	27.1	–	–	–
C=C1CC[C@H]2C(C)(C)CCC[C@]2(C)[C@H]1C/C=C1/C(=O)Nc2c(Cl)cc(F)cc21	1680	0.08	134	2.7	–	–
CC1=CC[C@H]2C(C)(C)CCC[C@]2(C)[C@H]1C/C=C1/C(=O)Nc2ccccc21	5.8	3.22	18.6	–	–	–

— ChEMBL document CHEMBL5131466, “Discovery and development of labdane-oxindole hybrids as small-molecule inhibitors against chikungunya virus infection” (Eur J Med Chem, 2022)
